The assay concerns the target RNA-directed RNA polymerase (Hepacivirus hominis, UniProt O39930). Kind of assay: Inhibitory activity against HCV delta 21 NS5B RNA polymerase by SPA assay. Also on record: species or system Hepatitis C virus subtype 1b.

Each structure is given as a SMILES string.

Broadly, the IC50 is the concentration that inhibits the measured activity by half.

Chain of RNA-directed RNA polymerase (O39930 whole entry): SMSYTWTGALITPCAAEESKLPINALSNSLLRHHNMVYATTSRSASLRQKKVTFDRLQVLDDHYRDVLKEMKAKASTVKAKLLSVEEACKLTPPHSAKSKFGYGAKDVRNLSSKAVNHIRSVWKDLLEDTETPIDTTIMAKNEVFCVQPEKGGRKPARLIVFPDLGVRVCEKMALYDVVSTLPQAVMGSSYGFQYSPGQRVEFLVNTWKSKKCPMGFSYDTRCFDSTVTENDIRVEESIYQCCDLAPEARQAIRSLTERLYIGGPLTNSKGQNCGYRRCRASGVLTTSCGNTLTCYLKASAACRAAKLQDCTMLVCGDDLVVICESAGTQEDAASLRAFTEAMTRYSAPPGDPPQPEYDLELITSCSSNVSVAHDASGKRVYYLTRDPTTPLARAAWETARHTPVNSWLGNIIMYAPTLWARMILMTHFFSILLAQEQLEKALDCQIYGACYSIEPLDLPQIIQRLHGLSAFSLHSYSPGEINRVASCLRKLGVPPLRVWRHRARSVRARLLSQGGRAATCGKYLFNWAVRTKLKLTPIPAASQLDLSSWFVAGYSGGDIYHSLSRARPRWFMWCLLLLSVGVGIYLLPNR

Compound `CC(C)(C)CCn1c(=O)c(C2=NS(=O)(=O)c3ccccc3N2)c(O)c2ccccc21` returned a half-inhibitory concentration (IC50) of 0.021 µM.
In turn, `CC(C)CCn1c(=O)c(C2=NS(=O)(=O)c3ccccc3N2)c(O)c2c(O)cccc21` yielded a half-maximal inhibitory concentration (IC50) of 0.047 µM. This IC50 is about 2.2-fold higher than that of the compound before.
The result for `CCCn1c(=O)c(C2=Nc3ccccc3S(=O)(=O)N2)c(O)c2ccccc21` reads 1.55 µM; that for `O=c1c(C2=NS(=O)(=O)c3ccccc3N2)c(O)c2ccccc2n1CCCc1ccccc1`, greater than 10 µM; that for `CC(=O)Nc1ccc2c(c1)c(O)c(C1=NS(=O)(=O)c3ccccc3N1)c(=O)n2CCC(C)C`, greater than 10 µM.
To `CC(C)CCn1c(=O)c(C2=Nc3ccccc3S(=O)(=O)N2)c(O)c2cccc([N+](=O)[O-])c21` belongs greater than 10 µM; to `COc1ccc2c(c1)c(O)c(C1=NS(=O)(=O)c3ccccc3N1)c(=O)n2CCC(C)C`, 0.023 µM; to `CC(C)CCn1c(=O)c(C2=Nc3ccccc3S(=O)(=O)N2)c(O)c2ccc(Cl)cc21`, greater than 10 µM.
In turn, `O=c1c(C2=Nc3ccccc3S(=O)(=O)N2)c(O)c2ccccc2n1CC1CCC1` gave an IC50 of 0.049 µM.
`CC(C)CCn1c(=O)c(C2=NS(=O)(=O)c3ccccc3N2)c(O)c2cc(NC(=O)c3ccccc3)ccc21`: the IC50 came out at 4.23 µM. Against the preceding compound, the IC50 is about 86-fold higher.
The result for `O=c1c(C2=NS(=O)(=O)c3ccccc3N2)c(O)c2ccccc2n1CCN1CCCC1` reads greater than 10 µM.
The result for `O=c1c(C2=Nc3ccccc3S(=O)(=O)N2)c(O)c2ccccc2n1Cc1cccc([N+](=O)[O-])c1` reads 0.081 µM.
On to `CC(C)CCn1c(=O)c(C2=NS(=O)(=O)c3ccccc3N2)c(O)c2c(Cl)cccc21`, for which the IC50 stood at 0.033 µM.
`CC(C)CCn1c(=O)c(C2=Nc3ccccc3S(=O)(=O)N2)cc2ccccc21` showed an IC50 greater than 10 µM.
The result for `CC(C)CCn1c(=O)c(C2=Nc3ccccc3S(=O)(=O)N2)c(O)c2c(F)cccc21` reads 0.34 µM; that for `CC(C)(C)C(=O)Cn1c(=O)c(C2=NS(=O)(=O)c3ccccc3N2)c(O)c2cc(F)ccc21`, 0.696 µM.
The result for `CN(C)C(=O)Cn1c(=O)c(C2=Nc3ccccc3S(=O)(=O)N2)c(O)c2cc(F)ccc21` reads greater than 10 µM; that for `CC(C)CCn1c(=O)c(C2=Nc3ccccc3S(=O)(=O)N2)c(O)c2ccc(C(=O)O)cc21`, greater than 10 µM.
`CC(C)CCn1c(=O)c(C2=NS(=O)(=O)c3ccccc3N2)c(O)c2cc(OCCCC#N)ccc21` yielded an IC50 of 4.33 µM.
The result for `O=c1c(C2=NS(=O)(=O)c3ccccc3N2)c(O)c2ccccc2n1CCc1ccccc1` reads greater than 10 µM.
To `CC(C)CCn1c(=O)c(C2=NS(=O)(=O)c3ccccc3N2)c(O)c2cc(I)ccc21` belongs greater than 10 µM.
The compound `O=c1c(C2=NS(=O)(=O)c3ccccc3N2)c(O)c2ccccc2n1Cc1cccnc1` gave an IC50 of 0.316 µM.
With `O=c1c(C2=Nc3ccccc3S(=O)(=O)N2)c(O)c2ccccc2n1-c1ccccc1`, the IC50 is greater than 10 µM.
The compound `COCCOc1ccc2c(c1)c(O)c(C1=NS(=O)(=O)c3ccccc3N1)c(=O)n2CCC(C)C` came in with an IC50 of 1.74 µM. That is a single-digit micromolar value.
The result for `CC(C)CCn1c(=O)c(C2=Nc3ccccc3S(=O)(=O)N2)c(O)c2cc(NC(=O)CN(C)C)ccc21` reads 5.81 µM; that for `CCOC(=O)n1c(=O)c(C2=NS(=O)(=O)c3ccccc3N2)c(O)c2ccccc21`, 2.04 µM.
To `NCCCCn1c(=O)c(C2=NS(=O)(=O)c3ccccc3N2)c(O)c2ccccc21` belongs greater than 10 µM; to `CCOC(=O)CNc1ccc2c(c1)c(O)c(C1=Nc3ccccc3S(=O)(=O)N1)c(=O)n2CCC(C)C`, 0.115 µM; to `Cn1c(=O)c(C2=NS(=O)(=O)c3ccccc3N2)c(O)c2ccccc21`, 5.59 µM.
To `COC(C)CCn1c(=O)c(C2=NS(=O)(=O)c3ccccc3N2)c(O)c2ccccc21` (centres undefined) belongs 0.082 µM; to `CC(C)CCn1c(=O)n(C2=Nc3ccccc3S(=O)(=O)N2)c(=O)c2ccccc21`, 9.94 µM; to `CC(C)CCn1c(=O)c(C2=NS(=O)(=O)c3ccccc3N2C)c(O)c2ccccc21`, greater than 2.43 µM.
Take `C#CCCCn1c(=O)c(C2=Nc3ccccc3S(=O)(=O)N2)c(O)c2ccccc21`: the IC50 is 0.179 µM.
The compound `CCCCn1c(=O)c(-c2nc3ccccc3[nH]2)c(O)c2ccccc21` returned an IC50 greater than 10 µM.
In the case of `CC(C)CCn1c(=O)c(C2=Nc3ccccc3S(=O)(=O)N2)c(O)c2c(Br)cccc21`, the IC50 was determined as 0.105 µM.
The compound `C=CCCn1c(=O)c(C2=NS(=O)(=O)c3ccccc3N2)c(O)c2ccccc21` came in with an IC50 of 0.09 µM.
Turning to `CC(C)CCn1c(=O)c(C2=NS(=O)(=O)c3ccccc3N2)c(O)c2cc(NC(=O)CC(C)C)ccc21`, the IC50 amounted to 6.5 µM. This IC50 lies about 72-fold higher than the previous one.
On to `CC(C)CCn1c(=O)c(C2=Nc3ccccc3S(=O)(=O)N2)c(O)c2cc(N)ccc21`, for which inhibition was half-maximal at 0.062 µM (IC50).
For `CC(C)=CCn1c(=O)c(C2=Nc3ccccc3S(=O)(=O)N2)c(O)c2ccccc21`, the IC50 came out at 0.289 µM. This IC50 lies about 4.7-fold higher than the previous one.
To `CCOC(=O)c1ccc2c(c1)c(O)c(C1=NS(=O)(=O)c3ccccc3N1)c(=O)n2CCC(C)C` belongs greater than 10 µM.
To `N#CCCCCn1c(=O)c(C2=Nc3ccccc3S(=O)(=O)N2)c(O)c2ccccc21` belongs 0.75 µM; to `O=c1c(C2=NS(=O)(=O)c3ccccc3N2)c(O)c2ccccc2n1CC1CCCC1`, 0.132 µM.
The result for `C/C=C/Cn1c(=O)c(C2=Nc3ccccc3S(=O)(=O)N2)c(O)c2ccccc21` reads 0.15 µM.
For `CS(=O)(=O)CCn1c(=O)c(C2=Nc3ccccc3S(=O)(=O)N2)c(O)c2ccccc21`, it took 2.32 µM to reach half-maximal inhibition (IC50).
The result for `CC(C)(C)c1ccc(Cn2c(=O)c(C3=NS(=O)(=O)c4ccccc4N3)c(O)c3ccccc32)cc1` reads greater than 10 µM; that for `CCOC(=O)CCCn1c(=O)c(C2=NS(=O)(=O)c3ccccc3N2)c(O)c2ccccc21`, greater than 10 µM; that for `O=c1c(C2=Nc3ccccc3S(=O)(=O)N2)c(O)c2ccccc2n1Cc1cccc(Br)c1`, 0.036 µM.
To `NC(=O)CCCn1c(=O)c(C2=Nc3ccccc3S(=O)(=O)N2)c(O)c2ccccc21` belongs greater than 10 µM; to `O=c1c(C2=Nc3ccccc3S(=O)(=O)N2)c(O)c2ccccc2n1CCc1cccs1`, greater than 10 µM; to `O=S1(=O)N=C(c2c(O)nc3ccccc3c2O)Nc2ccccc21`, greater than 10 µM.
To `CC(CCn1c(=O)c(C2=NS(=O)(=O)c3ccccc3N2)c(O)c2ccccc21)C(F)(F)F` (centres undefined) belongs 0.044 µM; to `CC(C)CCn1c(=O)c(C2=NS(=O)(=O)c3ccccc3N2)c(O)c2ccc(/C=C/C(N)=O)cc21`, greater than 10 µM; to `O=c1c(C2=NS(=O)(=O)c3ccccc3N2)c(O)c2ccccc2n1CC1CCCO1` (centres undefined), 0.528 µM.
The compound `CC(C)CCn1c(=O)c(C2=Nc3ccccc3S(=O)(=O)N2)c(O)c2ccc(Br)cc21` displayed an IC50 greater than 10 µM.
The result for `CC(C)CCn1c(=O)c(C2=NS(=O)(=O)c3ccccc3N2)c(O)c2c([N+](=O)[O-])cccc21` reads 0.338 µM; that for `Cc1cccc2c1c(O)c(C1=Nc3ccccc3S(=O)(=O)N1)c(=O)n2CCC(C)C`, 0.206 µM.
`N#CCCCn1c(=O)c(C2=NS(=O)(=O)c3ccccc3N2)c(O)c2ccccc21` came in with an IC50 of 0.172 µM.
In turn, `Cc1nc(Cn2c(=O)c(C3=Nc4ccccc4S(=O)(=O)N3)c(O)c3ccccc32)cs1` displayed an IC50 of 0.304 µM.
Consider `CC(C)CCn1c(=O)c(C2=Nc3ccccc3S(=O)(=O)N2)c(O)c2cc([N+](=O)[O-])ccc21`, for which half-maximal inhibition (IC50) was put at 0.455 µM.
To `CC(C)CCn1c(=O)c(C2=Nc3ccccc3S(=O)(=O)N2)c(O)c2c(-c3ccccc3)cccc21` belongs 0.144 µM; to `O=c1c(C2=NS(=O)(=O)c3ccccc3N2)c(O)c2ccccc2n1Cc1ccc(Br)cc1`, 0.095 µM; to `O=c1c(C2=Nc3ccccc3S(=O)(=O)N2)c(O)c2ccccc2n1CC1CCCCC1`, 0.367 µM.
The result for `CC(C)CCn1c(=O)c(C2=Nc3ccccc3S(=O)(=O)N2)c(O)c2cc(NCC(=O)O)ccc21` reads 0.021 µM; that for `C=CCn1c(=O)c(C2=Nc3ccccc3S(=O)(=O)N2)c(O)c2ccccc21`, greater than 10 µM; that for `CC(C)CCn1c(=O)c(C2=Nc3ccccc3S(=O)(=O)N2)c(O)c2cc(Br)ccc21`, 0.205 µM.
Turning to `CC(C)CCn1c(=O)c(C2=NS(=O)(=O)c3ccccc3N2)c(O)c2cc(C(=O)O)ccc21`, the IC50 was found to be 1.03 µM.
The result for `O=c1c(C2=NS(=O)(=O)c3ccccc3N2)c(O)c2ccccc2n1CCc1ccsc1` reads greater than 10 µM; that for `CC(C)CCn1cc(C2=NS(=O)(=O)c3ccccc3N2)c(=O)c2ccccc21`, greater than 10 µM.
For `CC(C)CCn1c(=O)c(C2=Nc3ccccc3S(=O)(=O)N2)c(O)c2cc(OCC(N)=O)ccc21`, the IC50 came out at 0.024 µM. This lies in the double-digit nanomolar range.
With `O=c1c(C2=Nc3ccccc3S(=O)(=O)N2)c(O)c2ccccc2n1Cc1ccccc1`, the IC50 is 0.082 µM.
To `CC(C)CCn1c(=O)c(C2=Nc3ccccc3S(=O)(=O)N2)c(O)c2cc(O)ccc21` belongs 0.198 µM; to `O=c1c(C2=NS(=O)(=O)c3ccccc3N2)c(O)c2ccccc2n1CCO`, greater than 10 µM; to `CCn1c(=O)c(C2=Nc3ccccc3S(=O)(=O)N2)c(O)c2ccccc21`, 2.22 µM.
To `CC(C)CCn1c(=O)c(C2=Nc3ccccc3S(=O)(=O)N2)c(O)c2ccc(F)cc21` belongs 0.554 µM; to `CC(C)CCn1c(=O)c(C2=Nc3ccccc3S(=O)(=O)N2)c(O)c2cc(OCC#N)ccc21`, 0.034 µM; to `O=c1c(C2=NS(=O)(=O)c3ccccc3N2)c(O)c2ccccc2n1CC1CCOC1` (centres undefined), 0.484 µM.
To `CC(C)Cn1c(=O)c(C2=Nc3ccccc3S(=O)(=O)N2)c(O)c2ccccc21` belongs 0.108 µM; to `CSCCn1c(=O)c(C2=NS(=O)(=O)c3ccccc3N2)c(O)c2ccccc21`, 0.053 µM; to `O=c1c(C2=NS(=O)(=O)c3ccccc3N2)c(O)c2ccccc2n1CCCO`, 2.81 µM.
On to `N#Cc1ccccc1Cn1c(=O)c(C2=Nc3ccccc3S(=O)(=O)N2)c(O)c2ccccc21`, for which half-maximal inhibition (IC50) required 0.78 µM. Compared with the last compound, the IC50 is about 3.6-fold lower.
The result for `CC(C)CCn1c(=O)c(C2=Nc3ccccc3S(=O)(=O)N2)c(O)c2ccc([N+](=O)[O-])cc21` reads greater than 10 µM; that for `O=c1c(C2=Nc3ccccc3S(=O)(=O)N2)c(O)c2ccccc2n1CCCCO`, 1.3 µM; that for `O=c1c(C2=Nc3ccccc3S(=O)(=O)N2)c(O)c2ccccc2n1Cc1ccccc1[N+](=O)[O-]`, greater than 10 µM.
The result for `O=c1[nH]c(-c2c(O)c3cc(F)ccc3n(CCC3CC3)c2=O)nc2ccccc12` reads greater than 10 µM.

For the origin of these results see ChEMBL document CHEMBL1148625, “3-(1,1-dioxo-2H-(1,2,4)-benzothiadiazin-3-yl)-4-hydroxy-2(1H)-quinolinones, potent inhibitors of hepatitis C virus RNA-dependent RNA polymerase” (J Med Chem, 2006).
